From patent US20260365611A1, “CRYSTALLINE SALTS OF 2-PHENYL-2-AMINOCYCLOHEXAN-1-ONE DERIVATIVES” (priority 2023, published 2026)
Where a name gives a salt, the structure may show the parent alone. Read-outs that look alike come from different tables or passages of the source.

Experiments:
Type in all cases: physicochemical
[1] = Thermo-Gravimetric Analysis (TGA)
Procedure: In the examples below, the solids are analyzed by XRPD to determine if they are crystalline and if so, by DSC to determine melting point and TGA to determine if hydrated/solvated.

[2] = Sublimation on heating; conditions: heated up to 300 °C
Procedure: The Form 1 polymorph was heated up to 300 °C. […] Polymorph screening of the deuterated 1R HCl salt of Example 2 (Form 1).

[3] = Dynamic Vapor Sorption (DVS)
Procedure: 1R HCl Form 1 was analyzed by DVS (0-90-O-90-0% RH at 25 °C). The DVS behavior is shown in FIGS. 5(a) and (b), wherein 1 plots cycle 1 desorption, 2 plots cycle 2 sorption, 3 plots cycle 2 desorption, 4 plots cycle 1 sorption, 5 plots target % P/Po and 6 plots dm dry line, wherein P is the vapor pressure, Po is the saturation vapor pressure and P/Po is equivalent to % relative humidity for water.

[4] = Approximate solubility in 20 solvents; conditions: for solubility: RT
Procedure: The approximate solubility of the crystalline hydrochloride salt product of Example 1 (1R HCl Form 1) was estimated in 20 solvents as follows: Approximately 10 mg of the product of Example 1 is placed into a 4.0 mL vial, to which 25 μL of solvent at RT is added, and then the vial with its contents is shaken and stirred. If no clear solution is obtained, another 25 μL of solvent is added to the vial and then the vial with its contents is shaken and stirred again. This process is repeated until 4.0 mL solvent is added, and then the contents of the vial are stirred overnight.

[5] = Crystal form conversion on drying
Procedure: About 0.25 mL of ethyl acetate was added to a glass vial containing about 40 mg of freebase (R)-2-(4-fluorophenyl)-2-(methylamino)cyclohexan-1-one. One molar equivalent of citric acid was added to the vial, and the contents were stirred at room temperature.

[6] = drying in a vacuum oven at room temperature

CN[C@@]1(c2ccc(F)cc2)CCCCC1=O [Phos-2, (R)-2-(4-fluorophenyl)-2-(methylamino)cyclohexan-1-one Phos-2]
TGA weight loss ([1]; by 100 °C): about 0.90%

CN[C@@]1(c2ccc(F)cc2)CCCCC1=O [Glyc-1, (R)-2-(4-fluorophenyl)-2-(methylamino)cyclohexan-1-one Glyc-1]
TGA weight loss ([1]; room temperature to 100 °C): about 1.89%

CN[C@@]1(c2ccc(F)cc2)CCCCC1=O [1R HCl Form 1, (R)-2-(4-fluorophenyl)-2-(methylamino)cyclohexan-1-one hydrochloride Form 1]
Sublimation [2]: can be sublimed from a solid phase to gas phase without passing through the liquid phase
Form of material recovered from sublimation ([2]; XRPD): same XRPD pattern as 1R HCl Form 1
DVS moisture sorption behavior ([3]; 25 °C, 0-90-0-90-0% RH): absorbs significant moisture above ~80% RH but readily releases the moisture at lower humidity
Crystal form of post-DVS sample ([3]; post-DVS, kept at 0% RH for 3 days): same crystal form as the starting solids
Hydrate/solvate state from TGA ([1]; heated from room temperature to 100 °C): not a hydrate or solvate
TGA weight loss ([1]; room temperature to 100 °C): 0.34%
solubility ([4]; 1,4-dioxane, organic solvent or mixture, 1,4-Dioxane, read-out: Solubility): 2.9 to 3.3 mg/mL
solubility ([4]; 2-methf, organic solvent or mixture, 2-MeTHF, read-out: Solubility): < 2.6 mg/mL
solubility ([4]; DCM): 194 to 388 mg/mL
solubility ([4]; DMF): 192 to 384 mg/mL
solubility ([4]; DMSO): >395 mg/mL
solubility ([4]; EtOH): 215 to 431 mg/mL
solubility ([4]; MeOH): >486 mg/mL
solubility ([4]; Water): >464 mg/mL
solubility ([4]; acetone, organic solvent or mixture, Acetone, read-out: Solubility): 8.8 to 9.7 mg/mL
solubility ([4]; acn, organic solvent or mixture, ACN, read-out: Solubility): 32 to 38 mg/mL
solubility ([4]; dcm, organic solvent or mixture, DCM, read-out: Solubility): > 300 mg/mL
solubility ([4]; dmf, organic solvent or mixture, DMF, read-out: Solubility): > 300 mg/mL
solubility ([4]; dmso, organic solvent or mixture, DMSO, read-out: Solubility): > 300 mg/mL
Solubility (in words) ([4]; esters, ketones, ethers, and alkanes): Limited or no solubility
solubility ([4]; etoac, organic solvent or mixture, EtOAc, read-out: Solubility): < 2.6 mg/mL
solubility ([4]; etoh, organic solvent or mixture, EtOH, read-out: Solubility): > 300 mg/mL
solubility ([4]; heptane, organic solvent or mixture, Heptane, read-out: Solubility): < 2.7 mg/mL
solubility ([4]; ipa, organic solvent or mixture, IPA, read-out: Solubility): 50 to 67 mg/mL
solubility ([4]; ipac, read-out: Solubility): < 2.4 mg/mL
solubility ([4]; mek, read-out: Solubility): 3.1 to 3.7 mg/mL
solubility ([4]; meoh, organic solvent or mixture, MeOH, read-out: Solubility): > 300 mg/mL
solubility ([4]; mibk, read-out: Solubility): < 2.7 mg/mL
solubility ([4]; mtbe, organic solvent or mixture, MTBE, read-out: Solubility): < 2.5 mg/mL
solubility ([4]; npa, read-out: Solubility): 51 to 69 mg/mL
solubility ([4]; thf, organic solvent or mixture, THF, read-out: Solubility): < 3 mg/mL
solubility ([4]; toluene, organic solvent or mixture, Toluene, read-out: Solubility): < 2.7 mg/mL
solubility ([4]; water, read-out: Solubility): > 300 mg/mL

CN[C@@]1(c2ccc(F)cc2)CCCCC1=O [Tar-4, (R)-2-(4-fluorophenyl)-2-(methylamino)cyclohexan-1-one Tar-4]
Crystal form conversion [5, 6]: converted into Tar-6

CN[C@@]1(c2ccc(F)cc2)CCCCC1=O [Cit-2, (R)-2-(4-fluorophenyl)-2-(methylamino)cyclohexan-1-one Cit-2]
TGA weight loss ([1]; room temperature to 100 °C): about 1.33%

CN[C@@]1(c2ccc(F)cc2)CCCCC1=O [Mali-1, (R)-2-(4-fluorophenyl)-2-(methylamino)cyclohexan-1-one-L-Mali-1]
TGA weight loss ([1]; room temperature to 100 °C): about 0.70%

CN[C@@]1(c2ccc(F)cc2)CCCCC1=O [Cit-1, (R)-2-(4-fluorophenyl)-2-(methylamino)cyclohexan-1-one Cit-1]
Crystal form conversion [5, 6]: transitioned to a different XRPD pattern

CN[C@@]1(c2ccc(F)cc2)CCCCC1=O [Mal-2, (R)-2-(4-fluorophenyl)-2-(methylamino)cyclohexan-1-one Mal-2]
TGA weight loss ([1]; by 100 °C): about 0.11%

CN[C@@]1(c2ccc(F)cc2)CCCCC1=O [Hip-1, (R)-2-(4-fluorophenyl)-2-(methylamino)cyclohexan-1-one Hip-1]
TGA weight loss ([1]; room temperature to 100 °C): about 0.69%

CN[C@@]1(c2ccc(F)cc2)CCCCC1=O [MSA-1, (R)-2-(4-fluorophenyl)-2-(methylamino)cyclohexan-1-one MSA-1]
TGA weight loss ([1]; by 100 °C): about 0.01%

CN[C@@]1(c2ccc(F)cc2)CCCCC1=O [Mal-1, (R)-2-(4-fluorophenyl)-2-(methylamino)cyclohexan-1-one Mal-1]
TGA weight loss ([1]; by 100 °C): about 0.16%

CN[C@@]1(c2ccc(F)cc2)CCCCC1=O [Tar-3, (R)-2-(4-fluorophenyl)-2-(methylamino)cyclohexan-1-one Tar-3]
TGA weight loss ([1]; room temperature to 125 °C): about 9.95%

CN[C@@]1(c2ccc(F)cc2)CCCCC1=O [Tar-6, (R)-2-(4-fluorophenyl)-2-(methylamino)cyclohexan-1-one Tar-6]
TGA weight loss ([1]; by 100 °C): about 10.67%

CN[C@@]1(c2ccc(F)cc2)CCCCC1=O [Sulfate-2, (R)-2-(4-fluorophenyl)-2-(methylamino)cyclohexan-1-one Sulfate-2]
Crystal form conversion ([5]; wet cake dried at room temperature): a different XRPD diffractogram was obtained

CN[C@@]1(c2ccc(F)cc2)CCCCC1=O [Sulfate-1, (R)-2-(4-fluorophenyl)-2-(methylamino)cyclohexan-1-one Sulfate-1]
TGA weight loss ([1]; by 100 °C, listed as sulfate salt): about 0.08%

CN[C@@]1(c2ccc(F)cc2)CCCCC1=O [Tar-2, (R)-2-(4-fluorophenyl)-2-(methylamino)cyclohexan-1-one Tar-2]
Crystal form conversion [5, 6]: transitioned into Tar-5

CN[C@@]1(c2ccc(F)cc2)CCCCC1=O [Tar-5, (R)-2-(4-fluorophenyl)-2-(methylamino)cyclohexan-1-one Tar-5]
TGA weight loss ([1]; by 100 °C): about 0.26%

CN[C@@]1(c2ccc(F)cc2)CCCCC1=O [Phos-1, (R)-2-(4-fluorophenyl)-2-(methylamino)cyclohexan-1-one Phos-1]
TGA weight loss ([1]; by 100 °C): about 0.11%

CN[C@@]1(c2ccc(F)cc2)CCCCC1=O [Fum-1, (R)-2-(4-fluorophenyl)-2-(methylamino)cyclohexan-1-one Fum-1]
TGA weight loss ([1]; by 100 °C): about 0.66%

CN[C@@]1(c2ccc(F)cc2)CCCCC1=O [Sulfate-3, (R)-2-(4-fluorophenyl)-2-(methylamino)cyclohexan-1-one Sulfate-3]
Crystal form conversion ([5]; further dried with heating at 40 °C): a different XRPD diffractogram was obtained
